Data on eleven compounds can be found in US7473790B2 (Pfizer Inc., priority 2003, dated 2009).

In the test the target is T1, HCV polymerase (Hepatitis C virus genotype 1b, UniProt P26663).
T1 construct: 2.5 pmoles (0.15 μg) HCV polymerase protein in a final volume of 75 μL
In words: HCV polymerase primer/template-directed transcription assay (32P-GTP incorporation, filter binding). It is filed as biochemical. Conditions: recombinant HCV polymerase; 30 minutes at 30° C.; concentration giving 50% inhibition of polymerase-directed transcription; read-out: IC50. Summed up: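 IC50s come from triplicate cpm, refit with an enzyme-concentration (30 nM) correction when under 200 nM. Reactions ran 30 min at 30° C in Tris pH 7.2 with MgCl2, 1 μM GTP spiked with α-32P-GTP, biotin-dG12 primer and poly(rC)300 template, with 1% DMSO. Incorporated label was collected on DE filtermats and counted.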

As a reminder, the IC50 is the concentration that inhibits the measured activity by half.

Molecules are shown by their SMILES.

T1 sequence (P26663 2420-3010): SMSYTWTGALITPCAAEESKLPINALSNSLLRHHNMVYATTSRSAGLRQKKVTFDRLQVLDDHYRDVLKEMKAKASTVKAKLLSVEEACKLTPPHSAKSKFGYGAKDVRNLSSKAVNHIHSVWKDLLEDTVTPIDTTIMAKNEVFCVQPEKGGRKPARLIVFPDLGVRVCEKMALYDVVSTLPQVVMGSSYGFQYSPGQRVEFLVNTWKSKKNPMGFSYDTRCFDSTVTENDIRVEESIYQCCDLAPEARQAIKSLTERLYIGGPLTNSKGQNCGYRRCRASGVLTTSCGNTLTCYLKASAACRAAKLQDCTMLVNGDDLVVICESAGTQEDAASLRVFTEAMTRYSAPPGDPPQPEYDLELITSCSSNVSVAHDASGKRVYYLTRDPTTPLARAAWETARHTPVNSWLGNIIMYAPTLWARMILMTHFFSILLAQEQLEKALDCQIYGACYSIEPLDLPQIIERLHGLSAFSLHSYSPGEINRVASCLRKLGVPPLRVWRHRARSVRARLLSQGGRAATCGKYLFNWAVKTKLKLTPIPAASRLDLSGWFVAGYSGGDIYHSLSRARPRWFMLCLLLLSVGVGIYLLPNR

Take `Cc1cc(C)n2nc(SC3=C(O)CC(CCc4ccc(C(F)F)c(F)c4)(C4CCCC4)OC3=O)nc2n1` (centres unmarked) [C(69), 6-Cyclopentyl-6-{2-[4-(difluoromethyl)-3-fluorophenyl]ethyl}-3-[(5,7-dimethyl[1,2,4]triazolo[1,5-a]pyrimidin-2-yl)thio]-4-hydroxy-5,6-dihydro-2H-pyran-2-one]: the IC50 is 0.13 µM. Consider `COc1ccc(CCC2(C3CCCC3)CC(O)=C(Sc3ccc4ccccc4n3)C(=O)O2)cc1Cl` (centres unmarked) [C(66), 6-[2-(3-chloro-4-methoxyphenyl)ethyl]-6-cyclopentyl-4-hydroxy-3-(quinolin-2-ylthio)-5,6-dihydro-2H-pyran-2-one], for which the IC50 was 0.9 µM.

Take `CC(C)Oc1ccc(CCC2(C3CCCC3)CC(O)=C(Cc3nc4cc(Cl)ccc4n3C(C)C)C(=O)O2)cc1F` (centres unmarked) [B(14), 3-(5-Chloro-1-isopropyl-1H-benzoimidazol-2-ylmethyl)-6-cyclopentyl-6-[2-(3-fluoro-4-isopropoxy-phenyl)-ethyl]-4-hydroxy-5,6-dihydro-pyran-2-one]: the IC50 came to 0.63 µM. In the case of `COc1ccc(CCC2(C3CCCC3)CC(O)=C(Sc3nc4cc(F)ccc4[nH]3)C(=O)O2)cc1Cl` (centres unmarked) [C(52), 6-[2-(3-chloro-4-methoxyphenyl)ethyl]-6-cyclopentyl-3-[(5-fluoro-1H-benzimidazol-2-yl)thio]-4-hydroxy-5,6-dihydro-2H-pyran-2-one] it was 0.14 µM. In the case of `COc1cc(OC)c(CCC2(C3CCCC3)CC(O)=C(Cc3cn4cccnc4n3)C(=O)O2)cc1Cl` (centres unmarked) [B(90), 6-[2-(5-chloro-2,4-dimethoxyphenyl)ethyl]-6-cyclopentyl-4-hydroxy-3-(imidazo[1,2-a]pyrimidin-2-ylmethyl)-5,6-dihydro-2H-pyran-2-one] it was 0.006 µM; in that of `Cc1cc(C)n2nc(CC3=C(O)CC(CCc4ccc(C(C)(C)O)c(F)c4)(C4CCCC4)OC3=O)nc2n1` (centres unmarked) [A(217), 6-cyclopentyl-3-[(5,7-dimethyl[1,2,4]triazolo[1,5-a]pyrimidin-2-yl)methyl]-6-{2-[3-fluoro-4-(1-hydroxy-1-methylethyl)phenyl]ethyl}-4-hydroxy-5,6-dihydro-2H-pyran-2-one], 0.014 µM. In the case of `COc1ccc(CCC2(C3CCCC3)CC(O)=C(Sc3nc4ccccc4n3-c3ccccc3)C(=O)O2)cc1Cl` (centres unmarked) [C(48), 6-[2-(3-chloro-4-methoxyphenyl)ethyl]-6-cyclopentyl-4-hydroxy-3-[(1-phenyl-1H-benzimidazol-2-yl)thio]-5,6-dihydro-2H-pyran-2-one] it was 0.14 µM. With `COc1cc(OC)c(CCC2(C3CCCC3)CC(O)=C(Sc3ncc(-c4cccnc4)[nH]3)C(=O)O2)cc1Cl` (centres unmarked) [C(77), 6-[2-(5-chloro-2,4-dimethoxyphenyl)ethyl]-6-6cyclopentyl-4-hydroxy-3-[(5-pyridin-3-yl-1H-imidazol-2-yl)thio]-5,6-2H-pyran-2-one], the IC50 amounted to 0.062 µM. In the case of `Cc1noc(C)c1-c1ccc(CCC2(C3CCCC3)CC(=O)CC(=O)O2)cc1` (centres unmarked) [A(18), 6-Cyclopentyl-6-{2-[4-(3,5-dimethyl-isoxazol-4-yl)-phenyl]-ethyl}-dihydro-pyran-2,4-dione] it was 3.1 µM. In the case of `Cc1cnc2nc(CC3=C(O)CC(CCc4ccc(C(C)(C)C#N)c(Cl)c4)(C4CCCC4)OC3=O)nn2c1` (racemic) [A(203), 2-(2-Chloro-4-{2-[2-cyclopentyl-4-hydroxy-5-(6-methyl-[1,2,4]triazolo[1,5-a]pyrimidin-2-ylmethyl)-6-oxo-3,6-dihydro-2H-pyran-2-yl]-ethyl}-phenyl)-2-methyl-propionitrile] it was 0.02 µM; in that of `COc1ccc(CCC2(C3CCCC3)CC(O)=C(Sc3nnc(-c4ccncc4)o3)C(=O)O2)cc1Cl` (centres unmarked) [C(104), 6-[2-(3-chloro-4-methoxyphenyl)ethyl]-6-cyclopentyl-4-hydroxy-3-[(5-pyridin-4-yl-1,3,4-oxadiazol-2-yl)thio]-5,6-dihydro-2H-pyran-2-one], 0.31 µM.
